# Where two headings read alike, the source gives them in different places. Peptide text beside a SMILES is read from it. * marks the point of attachment. C16 diacid = O=C(O)CCCCCCCCCCCCCCC(=O)*; Palmitoyl = CCCCCCCCCCCCCCCC(=O)*
# Columns and labels:
# [1] = target: T1, human GIP receptor (Homo sapiens, UniProt P48546); assay: cAMP accumulation assay, agonism (ligand alone); type: cell-based; settings: COS-7 cells, Table 1; for Emax: COS-7, intrinsic cAMP activity; for EC50: read-out: cAMP agonism nM (EC50)
# T1 construct: host or cells: COS-7, transient transfection (calcium phosphate), cDNA in pCMV-Script
# T1 sequence (P48546 22-466): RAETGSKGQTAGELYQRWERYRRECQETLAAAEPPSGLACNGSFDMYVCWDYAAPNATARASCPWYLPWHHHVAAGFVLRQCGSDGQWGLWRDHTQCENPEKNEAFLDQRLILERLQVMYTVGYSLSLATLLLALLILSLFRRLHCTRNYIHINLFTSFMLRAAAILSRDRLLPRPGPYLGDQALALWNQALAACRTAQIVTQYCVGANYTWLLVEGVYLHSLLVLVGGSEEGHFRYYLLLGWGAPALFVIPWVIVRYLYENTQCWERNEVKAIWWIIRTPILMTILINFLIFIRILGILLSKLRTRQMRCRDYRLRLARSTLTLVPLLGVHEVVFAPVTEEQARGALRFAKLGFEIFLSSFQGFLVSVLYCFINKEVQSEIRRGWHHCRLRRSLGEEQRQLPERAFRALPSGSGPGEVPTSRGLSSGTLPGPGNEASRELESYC
# [2] = target: T1, human GIP receptor; assay: 125I-human GIP competition binding assay, in the presence and absence of 2% HSA; settings: for Fold change HSA (2%)/Casein (0.1%): IC50 (plus HSA)/IC50 (minus HSA);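 as to all read-outs here: nonspecific binding taken as radioligand bound to untransfected cells, IC50 obtained from nonlinear regression fits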
# Protocol: Transient transfection of the COS-7 cells for cAMP accumulation and competition binding was performed using the calcium phosphate precipitation method with the addition of chloroquine^46-47.
# Transient transfected COS-7 cells expressing the human GIP receptor were seeded in clear 96-well plates the day after transfection using a number of cells/well that obtained 5-10% specific binding of the added radioactive ligand. The following day, cells were assayed by competition binding for 3 h at 4° C. using 15-40 pM 125 I-human GIP as well as increasing concentrations unlabeled ligand in 50 mM Hepes buffer (pH 7.2) in the presence and absence of 2% HSA. After incubation, the cells were washed twice in ice-cold binding buffer (+/−2% HSA) and lysed using 200 mM NaOH with 1% SDS for 30 min. Nonspecific binding was determined as the binding of radioactive ligand to untransfected cells.
# IC50, EC50, and Ki values were determined by nonlinear regression. […] Ki values were based on the formula for one class of binding sites in homologous competition binding studies and the Cheng Prussoffs formula, respectively (DeBlasi et al., 1989). To determine the HSA binding potential, the fold change in affinity (as determined by IC50) was calculated as IC50 (plus HSA)/IC50 (minus HSA).
# [3] = heterologous competition binding, transiently transfected COS-7 cells expressing the human GIP receptor, read-out: Binding
# [4] = binding in 0.1% casein (absence of HSA), log value, read-out: logIC50 0.1% casein (converted)
smiles,measurement,setting,value
"CCCCCCCCCCCCCCCCCC(=O)NCCCC[C@H](NC(=O)[C@H](CC(=O)O)NC(=O)[C@H](CCSC)NC(=O)[C@H](C)NC(=O)[C@@H](NC(=O)[C@H](CO)NC(=O)[C@H](Cc1ccc(O)cc1)NC(=O)[C@H](CC(=O)O)NC(=O)[C@H](CO)NC(=O)[C@@H](NC(=O)[C@H](Cc1ccccc1)NC(=O)[C@@H](NC(=O)CNC(=O)[C@@H](N)CCC(=O)O)[C@@H](C)O)[C@@H](C)CC)[C@@H](C)CC)C(=O)N[C@H](C(=O)N[C@@H](CCCNC(=N)N)C(=O)N[C@@H](CCC(N)=O)C(=O)N[C@@H](CCC(N)=O)C(=O)N[C@@H](CC(=O)O)C(=O)N[C@@H](Cc1ccccc1)C(=O)N[C@H](C(=O)N[C@@H](CC(N)=O)C(=O)N[C@@H](Cc1c[nH]c2ccccc12)C(=O)N[C@@H](CC(C)C)C(=O)N[C@@H](CC(C)C)C(=O)N[C@@H](C)C(=O)N[C@@H](CCC(N)=O)C(=O)N[C@@H](CCCNC(=N)N)C(N)=O)C(C)C)[C@@H](C)CC [AT162, [hGIP(3-30)NH2[H18R; K30R]-C18/16]]",Emax,[1],44%
same,"Fold change in affinity, IC50 (plus HSA)/IC50 (minus HSA)","[2]; presence vs absence of 2% HSA, proxy for albumin binding",5.6 fold
"CCCCCCCCCCCCCCCCCC(=O)N[C@@H](CCC(=O)O)C(=O)NCC(=O)N[C@H](C(=O)N[C@@H](Cc1ccccc1)C(=O)N[C@H](C(=O)N[C@@H](CO)C(=O)N[C@@H](CC(=O)O)C(=O)N[C@@H](Cc1ccc(O)cc1)C(=O)N[C@@H](CO)C(=O)N[C@H](C(=O)N[C@@H](C)C(=O)N[C@@H](CCSC)C(=O)N[C@@H](CC(=O)O)C(=O)N[C@@H](CCCCN)C(=O)N[C@H](C(=O)N[C@@H](Cc1c[nH]cn1)C(=O)N[C@@H](CCC(N)=O)C(=O)N[C@@H](CCC(N)=O)C(=O)N[C@@H](CC(=O)O)C(=O)N[C@@H](Cc1ccccc1)C(=O)N[C@H](C(=O)N[C@@H](CC(N)=O)C(=O)N[C@@H](Cc1c[nH]c2ccccc12)C(=O)N[C@@H](CC(C)C)C(=O)N[C@@H](CC(C)C)C(=O)N[C@@H](C)C(=O)N[C@@H](CCC(N)=O)C(=O)N[C@@H](CCCCN)C(N)=O)C(C)C)[C@@H](C)CC)[C@@H](C)CC)[C@@H](C)CC)[C@@H](C)O [AT113, [hGIP(3-30)NH2—C18/3]]",Emax,[1],77%
same,EC50,[1],9.9 nM
same,IC50,"[2]; Table 3b, initial data, read-out: Binding IC50",41400 nM
same,Binding fold (paired),"[2]; fold decrease in affinity compared to GIP(3-30)NH2, Table 3b",16380 fold
same,IC50,[2]; [3],41400 nM
"CCCCCCCCCCCCCCCCCC(=O)NCCCC[C@H](NC(=O)[C@H](CCC(N)=O)NC(=O)[C@H](C)NC(=O)[C@H](CC(C)C)NC(=O)[C@H](CC(C)C)NC(=O)[C@H](Cc1c[nH]c2ccccc12)NC(=O)[C@H](CC(N)=O)NC(=O)[C@@H](NC(=O)[C@H](Cc1ccccc1)NC(=O)[C@H](CC(=O)O)NC(=O)[C@H](CCC(N)=O)NC(=O)[C@H](CCC(N)=O)NC(=O)[C@H](Cc1c[nH]cn1)NC(=O)[C@@H](NC(=O)[C@H](CCCCN)NC(=O)[C@H](CC(=O)O)NC(=O)[C@H](CCSC)NC(=O)[C@H](C)NC(=O)[C@@H](NC(=O)[C@H](CO)NC(=O)[C@H](Cc1ccc(O)cc1)NC(=O)[C@H](CC(=O)O)NC(=O)[C@H](CO)NC(=O)[C@@H](NC(=O)[C@H](Cc1ccccc1)NC(=O)[C@@H](N)[C@@H](C)O)[C@@H](C)CC)[C@@H](C)CC)[C@@H](C)CC)C(C)C)C(N)=O [AT129, [hGIP(5-30)NH2—C18/30]]",Emax,[1],0%
same,IC50,"[2]; heterologous competition binding, transiently transfected COS-7 cells expressing the human GIP receptor, log value of the nM column, read-out: Binding log (converted)",126000 nM
"CCCCCCCCCCCCCC(=O)NCCCC[C@H](NC(=O)[C@H](CC(=O)O)NC(=O)[C@H](CCSC)NC(=O)[C@H](C)NC(=O)[C@@H](NC(=O)[C@H](CO)NC(=O)[C@H](Cc1ccc(O)cc1)NC(=O)[C@H](CC(=O)O)NC(=O)[C@H](CO)NC(=O)[C@@H](NC(=O)[C@H](Cc1ccccc1)NC(=O)[C@@H](N)[C@@H](C)O)[C@@H](C)CC)[C@@H](C)CC)C(=O)N[C@H](C(=O)N[C@@H](Cc1c[nH]cn1)C(=O)N[C@@H](CCC(N)=O)C(=O)N[C@@H](CCC(N)=O)C(=O)N[C@@H](CC(=O)O)C(=O)N[C@@H](Cc1ccccc1)C(=O)N[C@H](C(=O)N[C@@H](CC(N)=O)C(=O)N[C@@H](Cc1c[nH]c2ccccc12)C(=O)N[C@@H](CC(C)C)C(=O)N[C@@H](CC(C)C)C(=O)N[C@@H](C)C(=O)N[C@@H](CCC(N)=O)C(=O)N[C@@H](CCCCN)C(N)=O)C(C)C)[C@@H](C)CC [AT122, [hGIP(5-30)NH2—C14/16]]",Emax,[1],0%
same,Fold change HSA (2%)/Casein (0.1%),[2],4.9
same,IC50,[2]; [4],1260 nM
"CC[C@H](C)[C@H](NC(=O)[C@H](CO)NC(=O)[C@H](Cc1ccc(O)cc1)NC(=O)[C@H](CC(=O)O)NC(=O)[C@H](CO)NC(=O)[C@@H](NC(=O)[C@H](Cc1ccccc1)NC(=O)[C@@H](N)[C@@H](C)O)[C@@H](C)CC)C(=O)N[C@@H](C)C(=O)N[C@@H](CCSC)C(=O)N[C@@H](CC(=O)O)C(=O)N[C@@H](CCCCNC(=O)CCCCCCCCCCCCCCCCC(=O)O)C(=O)N[C@H](C(=O)N[C@@H](Cc1c[nH]cn1)C(=O)N[C@@H](CCC(N)=O)C(=O)N[C@@H](CCC(N)=O)C(=O)N[C@@H](CC(=O)O)C(=O)N[C@@H](Cc1ccccc1)C(=O)N[C@H](C(=O)N[C@@H](CC(N)=O)C(=O)N[C@@H](Cc1c[nH]c2ccccc12)C(=O)N[C@@H](CC(C)C)C(=O)N[C@@H](CC(C)C)C(=O)N[C@@H](C)C(=O)N[C@@H](CCC(N)=O)C(=O)N[C@@H](CCCCN)C(N)=O)C(C)C)[C@@H](C)CC [AT141, [hGIP(5-30)NH2—C18diacid/16]]",Emax,[1],0%
same,Fold change HSA (2%)/Casein (0.1%),[2],6.5
same,IC50,[2]; [4],2000 nM
same,IC50,[2]; [3],1900 nM
"CC[C@H](C)[C@H](NC(=O)[C@H](CO)NC(=O)[C@H](CCCCNC(=O)CCCCCCCCCCCCCCC(=O)O)NC(=O)[C@H](CC(=O)O)NC(=O)[C@H](CO)NC(=O)[C@@H](NC(=O)[C@H](Cc1ccccc1)NC(=O)[C@@H](NC(=O)CNC(=O)[C@@H](N)CCC(=O)O)[C@@H](C)O)[C@@H](C)CC)C(=O)N[C@@H](C)C(=O)N[C@@H](CCSC)C(=O)N[C@@H](CC(=O)O)C(=O)N[C@@H](CCCCN)C(=O)N[C@H](C(=O)N[C@@H](Cc1c[nH]cn1)C(=O)N[C@@H](CCC(N)=O)C(=O)N[C@@H](CCC(N)=O)C(=O)N[C@@H](CC(=O)O)C(=O)N[C@@H](Cc1ccccc1)C(=O)N[C@H](C(=O)N[C@@H](CC(N)=O)C(=O)N[C@@H](Cc1c[nH]c2ccccc12)C(=O)N[C@@H](CC(C)C)C(=O)N[C@@H](CC(C)C)C(=O)N[C@@H](C)C(=O)N[C@@H](CCC(N)=O)C(=O)N[C@@H](CCCCN)C(N)=O)C(C)C)[C@@H](C)CC [AT301, [hGIP(3-30)NH2[Y10K]-C16diacid/10]] (H-EGTFISDK(C16 diacid)SIAMDKIHQQDFVNWLLAQK-NH2; N-terminus assumed)",Emax,[1],8.5%
same,EC50,[1],12 nM
"CCCCCCCCCCCCCCCC(=O)NCCCC[C@H](NC(=O)[C@@H](NC(=O)[C@H](CCCNC(=N)N)NC(=O)[C@H](CC(=O)O)NC(=O)[C@H](CCSC)NC(=O)[C@H](C)NC(=O)[C@@H](NC(=O)[C@H](CO)NC(=O)[C@H](Cc1ccc(O)cc1)NC(=O)[C@H](CC(=O)O)NC(=O)[C@H](CO)NC(=O)[C@@H](NC(=O)[C@H](Cc1ccccc1)NC(=O)[C@@H](NC(=O)CNC(=O)[C@@H](N)CCC(=O)O)[C@@H](C)O)[C@@H](C)CC)[C@@H](C)CC)[C@@H](C)CC)C(=O)N[C@@H](CCC(N)=O)C(=O)N[C@@H](CCC(N)=O)C(=O)N[C@@H](CC(=O)O)C(=O)N[C@@H](Cc1ccccc1)C(=O)N[C@H](C(=O)N[C@@H](CC(N)=O)C(=O)N[C@@H](Cc1c[nH]c2ccccc12)C(=O)N[C@@H](CC(C)C)C(=O)N[C@@H](CC(C)C)C(=O)N[C@@H](C)C(=O)N[C@@H](CCC(N)=O)C(=O)N[C@@H](CCCNC(=N)N)C(N)=O)C(C)C [AT144, [hGIP(3-30)NH2[K16R; H18K; K30R]-C16/18]] (H-EGTFISDYSIAMDRIK(Palmitoyl)QQDFVNWLLAQR-NH2; N-terminus assumed)",Emax,[1],0%
"CC[C@H](C)[C@H](NC(=O)[C@H](CO)NC(=O)[C@H](Cc1ccc(O)cc1)NC(=O)[C@H](CC(=O)O)NC(=O)[C@H](CO)NC(=O)[C@@H](NC(=O)[C@H](Cc1ccccc1)NC(=O)[C@@H](NC(=O)CNC(=O)[C@@H](N)CCC(=O)O)[C@@H](C)O)[C@@H](C)CC)C(=O)N[C@@H](C)C(=O)N[C@@H](CCSC)C(=O)N[C@@H](CC(=O)O)C(=O)N[C@@H](CCCCN)C(=O)N[C@H](C(=O)N[C@@H](Cc1c[nH]cn1)C(=O)N[C@@H](CCCCNC(=O)CCCCCCCCCCCCCCC(=O)O)C(=O)N[C@@H](CCC(N)=O)C(=O)N[C@@H](CC(=O)O)C(=O)N[C@@H](Cc1ccccc1)C(=O)N[C@H](C(=O)N[C@@H](CC(N)=O)C(=O)N[C@@H](Cc1c[nH]c2ccccc12)C(=O)N[C@@H](CC(C)C)C(=O)N[C@@H](CC(C)C)C(=O)N[C@@H](C)C(=O)N[C@@H](CCC(N)=O)C(=O)N[C@@H](CCCCN)C(N)=O)C(C)C)[C@@H](C)CC [AT308, [hGIP(3-30)NH2[Q19K]-C16diacid/19]] (H-EGTFISDYSIAMDKIHK(C16 diacid)QDFVNWLLAQK-NH2; N-terminus assumed)",Emax,[1],7.9%

# — patent US11572399B2, “Long-acting GIP peptide analogues” (University of Copenhagen, priority 2017, dated 2023)
